{
  "source": "patent US20210308308A1",
  "about": "“SYRINGE AND KIT FOR INTRAVESICAL USE” (Farco-Pharma GmbH, priority 2020, published 2021)",
  "test": "stability of oxybutynin hydrochloride composition during terminal vapor sterilization in prefilled piston syringes",
  "note": "Structures can show the parent of a compound that is named as a salt.",
  "data": [
    {"smiles": "CCN(CC)CC#CCOC(=O)C(O)(c1ccccc1)C1CCCCC1", "note": "(centres unmarked) [oxybutynin hydrochloride, 4-diethylaminobut-2-inyl-2-cyclohexyl-2-hydroxy-2-phenyl ethanoate]", "values": [
      {"measurement": "further impurities after vapor sterilization", "setting": "1 mg/ml, pH 4.0, polypropylene syringes with piston plugs of conventional rubber material, vapor sterilization", "value": "exceeding 0.5%"},
      {"measurement": "stability during thermal sterilization (in words)", "setting": "aqueous composition, polypropylene (disposable) syringes, piston plugs and closing caps of commonly used rubber materials", "value": "high instability or incompatibility"}
    ]}
  ]
}
